The text below walks through data of patent publication US9580444B2, “Polycyclic pyrazolinone derivative and herbicide comprising same as effective component thereof” (priority 2013, dated 2017).

Holding throughout (assay): Test Example-1: herbicidal effect by a treatment before weeds are generated under submerged conditions
What all share (assay type): in vivo
What all share (details): 500 g a.i/ha, pre-emergence treatment, about 15 days after treatment, score 0-5

Assay [1] has as its system Cyperus difformis (smallflower umbrella plant). Summed up: (§1)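 Flooded paddy-soil cups, seeded and treated by submersion application on sowing day; rated 0–5 ~15 d later.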
Assay [2] concerns Echinochloa oryzicola (barnyard grass). In outline:
as §1

Assay [3] concerns Eleocharis acicularis (needle spikerush). In outline: as §1
Assay [4] concerns Monochoria vaginalis (monochoria). Summed up:
as §1

Assay [5] relates to Scirpus juncoides (bulrush). Summed up: as §1
Assay [6] concerns other annual broad leaf weeds (Lindernia procumbens, Rotala indica, Elatine triandra). Summed up: as §1

Turning to `CCOC(=O)C(Cl)Cc1cc(-c2c(Cl)n3n(c2=O)CCCC3)c(F)cc1Cl` (stereo not drawn) [Example 1-260], the “Herbicidal effect Cyperus difformis” value in assay [1] was 5 (Herbicidal effect/phytotoxicity was 90% or greater). Besides, the “Herbicidal effect Echinochloa oryzicola” value in assay [2] is given as 5 (Herbicidal effect/phytotoxicity was 90% or greater). Besides, the “Herbicidal effect Eleocharis acicularis” value in assay [3] is 5 (Herbicidal effect/phytotoxicity was 90% or greater). Besides, the “Herbicidal effect Monochoria vaginalis” value in assay [4] is 5 (Herbicidal effect/phytotoxicity was 90% or greater). Further, the “Herbicidal effect Scirpus juncoides” value in assay [5] is 5 (Herbicidal effect/phytotoxicity was 90% or greater). Moreover, the “Herbicidal effect Broadleaf weed” value in assay [6] is 5 (Herbicidal effect/phytotoxicity was 90% or greater).
In the case of `C#CCOc1cc(-c2c(F)n3n(c2=O)CCCCC3)c(Cl)cc1Cl` [Example 1-361], the “Herbicidal effect Cyperus difformis” value in assay [1] was 5 (Herbicidal effect/phytotoxicity was 90% or greater). Moreover, the “Herbicidal effect Echinochloa oryzicola” value in assay [2] is listed as 5 (Herbicidal effect/phytotoxicity was 90% or greater). In addition, in assay [3], the “Herbicidal effect Eleocharis acicularis” value is on record as 5 (Herbicidal effect/phytotoxicity was 90% or greater). In addition, the “Herbicidal effect Monochoria vaginalis” value in assay [4] is recorded as 5 (Herbicidal effect/phytotoxicity was 90% or greater). The “Herbicidal effect Scirpus juncoides” value in assay [5] is on record as 5 (Herbicidal effect/phytotoxicity was 90% or greater). Further, the “Herbicidal effect Broadleaf weed” value in assay [6] is 5 (Herbicidal effect/phytotoxicity was 90% or greater).
In the case of `O=c1c(-c2cc(Oc3cccnc3[N+](=O)[O-])c(Cl)cc2F)c(Cl)n2n1CCCC2` [Example 1-386], the “Herbicidal effect Cyperus difformis” value in assay [1] is reported as 5 (Herbicidal effect/phytotoxicity was 90% or greater). Moreover, the “Herbicidal effect Echinochloa oryzicola” value in assay [2] was 5 (Herbicidal effect/phytotoxicity was 90% or greater). For the same compound, the “Herbicidal effect Eleocharis acicularis” value in assay [3] is listed as 5 (Herbicidal effect/phytotoxicity was 90% or greater). The “Herbicidal effect Monochoria vaginalis” value in assay [4] is given as 5 (Herbicidal effect/phytotoxicity was 90% or greater). In addition, the “Herbicidal effect Scirpus juncoides” value in assay [5] is 5 (Herbicidal effect/phytotoxicity was 90% or greater). For the same compound, the “Herbicidal effect Broadleaf weed” value in assay [6] is reported as 5 (Herbicidal effect/phytotoxicity was 90% or greater).
For the compound `C#CCN(C)c1cc(-c2c(Cl)n3n(c2=O)CCCC3)c(F)cc1Cl` [Example 5-68], the “Herbicidal effect Cyperus difformis” value in assay [1] was 5 (Herbicidal effect/phytotoxicity was 90% or greater). In assay [2], the “Herbicidal effect Echinochloa oryzicola” value is 5 (Herbicidal effect/phytotoxicity was 90% or greater). For the same compound, in assay [3], the “Herbicidal effect Eleocharis acicularis” value is on record as 5 (Herbicidal effect/phytotoxicity was 90% or greater). Also, the “Herbicidal effect Monochoria vaginalis” value in assay [4] is listed as 5 (Herbicidal effect/phytotoxicity was 90% or greater). Moreover, in assay [5], the “Herbicidal effect Scirpus juncoides” value is reported as 5 (Herbicidal effect/phytotoxicity was 90% or greater). Besides, the “Herbicidal effect Broadleaf weed” value in assay [6] is listed as 5 (Herbicidal effect/phytotoxicity was 90% or greater).
As to `COc1cc(Cl)ccc1Oc1cc(-c2c(Cl)n3n(c2=O)CCCC3)c(F)cc1Cl` [Compound 3-37], the “Herbicidal effect Cyperus difformis” value in assay [1] is 5 (Herbicidal effect/phytotoxicity was 90% or greater). Also, the “Herbicidal effect Echinochloa oryzicola” value in assay [2] was 5 (Herbicidal effect/phytotoxicity was 90% or greater). Further, the “Herbicidal effect Eleocharis acicularis” value in assay [3] is 5 (Herbicidal effect/phytotoxicity was 90% or greater). For the same compound, the “Herbicidal effect Monochoria vaginalis” value in assay [4] is listed as 5 (Herbicidal effect/phytotoxicity was 90% or greater). Also, in assay [5], the “Herbicidal effect Scirpus juncoides” value is 5 (Herbicidal effect/phytotoxicity was 90% or greater). For the same compound, the “Herbicidal effect Broadleaf weed” value in assay [6] is reported as 5 (Herbicidal effect/phytotoxicity was 90% or greater).
Regarding `C=C(C)COc1cc(-c2c(Cl)n3n(c2=O)CCCC3)c(F)cc1F` [Example 1-106], the “Herbicidal effect Cyperus difformis” value in assay [1] is given as 5 (Herbicidal effect/phytotoxicity was 90% or greater). For the same compound, the “Herbicidal effect Echinochloa oryzicola” value in assay [2] was 5 (Herbicidal effect/phytotoxicity was 90% or greater). For the same compound, the “Herbicidal effect Eleocharis acicularis” value in assay [3] is given as 5 (Herbicidal effect/phytotoxicity was 90% or greater). Also, in assay [4], the “Herbicidal effect Monochoria vaginalis” value was 5 (Herbicidal effect/phytotoxicity was 90% or greater). Also, in assay [5], the “Herbicidal effect Scirpus juncoides” value is listed as 5 (Herbicidal effect/phytotoxicity was 90% or greater). For the same compound, the “Herbicidal effect Broadleaf weed” value in assay [6] is 5 (Herbicidal effect/phytotoxicity was 90% or greater).
For `COC(=O)C(Cl)Cc1cc(-c2c(Cl)n3n(c2=O)CCCC3)c(F)cc1Cl` (stereo not drawn) [Example 1-257], the “Herbicidal effect Cyperus difformis” value in assay [1] is listed as 5 (Herbicidal effect/phytotoxicity was 90% or greater). In addition, the “Herbicidal effect Echinochloa oryzicola” value in assay [2] is given as 5 (Herbicidal effect/phytotoxicity was 90% or greater). Besides, the “Herbicidal effect Eleocharis acicularis” value in assay [3] is 5 (Herbicidal effect/phytotoxicity was 90% or greater). In addition, the “Herbicidal effect Monochoria vaginalis” value in assay [4] is on record as 5 (Herbicidal effect/phytotoxicity was 90% or greater). Besides, in assay [5], the “Herbicidal effect Scirpus juncoides” value is reported as 5 (Herbicidal effect/phytotoxicity was 90% or greater). Further, the “Herbicidal effect Broadleaf weed” value in assay [6] was 5 (Herbicidal effect/phytotoxicity was 90% or greater).
`C=CC(F)(F)Oc1cc(-c2c(Cl)n3n(c2=O)CCCC3)c(F)cc1Cl` [Example 1-206]: the “Herbicidal effect Cyperus difformis” value in assay [1] is 5 (Herbicidal effect/phytotoxicity was 90% or greater). In addition, the “Herbicidal effect Echinochloa oryzicola” value in assay [2] is listed as 5 (Herbicidal effect/phytotoxicity was 90% or greater). Besides, in assay [3], the “Herbicidal effect Eleocharis acicularis” value is given as 5 (Herbicidal effect/phytotoxicity was 90% or greater). Moreover, the “Herbicidal effect Monochoria vaginalis” value in assay [4] was 5 (Herbicidal effect/phytotoxicity was 90% or greater). Besides, in assay [5], the “Herbicidal effect Scirpus juncoides” value was 5 (Herbicidal effect/phytotoxicity was 90% or greater). Moreover, in assay [6], the “Herbicidal effect Broadleaf weed” value was 5 (Herbicidal effect/phytotoxicity was 90% or greater).
With `N#CCOc1ccc(Oc2cc(-c3c(Cl)n4n(c3=O)CCCC4)c(F)cc2Cl)cc1` [Compound 3-20], in assay [1], the “Herbicidal effect Cyperus difformis” value is reported as 5 (Herbicidal effect/phytotoxicity was 90% or greater). Further, the “Herbicidal effect Echinochloa oryzicola” value in assay [2] is 5 (Herbicidal effect/phytotoxicity was 90% or greater). In assay [3], the “Herbicidal effect Eleocharis acicularis” value was 5 (Herbicidal effect/phytotoxicity was 90% or greater). Besides, the “Herbicidal effect Monochoria vaginalis” value in assay [4] is given as 5 (Herbicidal effect/phytotoxicity was 90% or greater). Further, the “Herbicidal effect Scirpus juncoides” value in assay [5] is listed as 5 (Herbicidal effect/phytotoxicity was 90% or greater). Further, the “Herbicidal effect Broadleaf weed” value in assay [6] is on record as 5 (Herbicidal effect/phytotoxicity was 90% or greater).
For `C=CCOc1cc(F)ccc1Oc1cc(-c2c(Cl)n3n(c2=O)CCCC3)c(F)cc1Cl` [Compound 3-34], in assay [1], the “Herbicidal effect Cyperus difformis” value was 5 (Herbicidal effect/phytotoxicity was 90% or greater). The “Herbicidal effect Echinochloa oryzicola” value in assay [2] is 5 (Herbicidal effect/phytotoxicity was 90% or greater). Also, the “Herbicidal effect Eleocharis acicularis” value in assay [3] is listed as 5 (Herbicidal effect/phytotoxicity was 90% or greater). In addition, the “Herbicidal effect Monochoria vaginalis” value in assay [4] was 5 (Herbicidal effect/phytotoxicity was 90% or greater). In addition, the “Herbicidal effect Scirpus juncoides” value in assay [5] is reported as 5 (Herbicidal effect/phytotoxicity was 90% or greater). Moreover, the “Herbicidal effect Broadleaf weed” value in assay [6] is given as 5 (Herbicidal effect/phytotoxicity was 90% or greater).
Regarding `COC(=O)C=C(COc1cc(-c2c(Cl)n3n(c2=O)CCCC3)c(Cl)cc1Cl)OC` (mixture of isomers) [Compound 2-5], in assay [1], the “Herbicidal effect Cyperus difformis” value is on record as 5 (Herbicidal effect/phytotoxicity was 90% or greater). Also, the “Herbicidal effect Echinochloa oryzicola” value in assay [2] is given as 5 (Herbicidal effect/phytotoxicity was 90% or greater). Besides, the “Herbicidal effect Eleocharis acicularis” value in assay [3] was 5 (Herbicidal effect/phytotoxicity was 90% or greater). For the same compound, the “Herbicidal effect Monochoria vaginalis” value in assay [4] is recorded as 5 (Herbicidal effect/phytotoxicity was 90% or greater). In assay [5], the “Herbicidal effect Scirpus juncoides” value is recorded as 5 (Herbicidal effect/phytotoxicity was 90% or greater). The “Herbicidal effect Broadleaf weed” value in assay [6] is listed as 5 (Herbicidal effect/phytotoxicity was 90% or greater).
Consider `C#CC(C)Oc1ccccc1Oc1cc(-c2c(Cl)n3n(c2=O)CCCC3)c(F)cc1Cl` (stereo not drawn) [Compound 3-31], for which the “Herbicidal effect Cyperus difformis” value in assay [1] is recorded as 5 (Herbicidal effect/phytotoxicity was 90% or greater). Besides, in assay [2], the “Herbicidal effect Echinochloa oryzicola” value is 5 (Herbicidal effect/phytotoxicity was 90% or greater). Also, the “Herbicidal effect Eleocharis acicularis” value in assay [3] is recorded as 5 (Herbicidal effect/phytotoxicity was 90% or greater). Further, in assay [4], the “Herbicidal effect Monochoria vaginalis” value was 5 (Herbicidal effect/phytotoxicity was 90% or greater). The “Herbicidal effect Scirpus juncoides” value in assay [5] is 5 (Herbicidal effect/phytotoxicity was 90% or greater). Moreover, in assay [6], the “Herbicidal effect Broadleaf weed” value is given as 5 (Herbicidal effect/phytotoxicity was 90% or greater).
On to `C=C(COc1ccccc1Oc1cc(-c2c(Cl)n3n(c2=O)CCCC3)c(F)cc1Cl)c1cccc(Cl)c1` [Compound 3-26], for which the “Herbicidal effect Cyperus difformis” value in assay [1] was 5 (Herbicidal effect/phytotoxicity was 90% or greater). The “Herbicidal effect Echinochloa oryzicola” value in assay [2] is recorded as 5 (Herbicidal effect/phytotoxicity was 90% or greater). In addition, in assay [3], the “Herbicidal effect Eleocharis acicularis” value is 5 (Herbicidal effect/phytotoxicity was 90% or greater). In assay [4], the “Herbicidal effect Monochoria vaginalis” value is 5 (Herbicidal effect/phytotoxicity was 90% or greater). For the same compound, the “Herbicidal effect Scirpus juncoides” value in assay [5] is on record as 5 (Herbicidal effect/phytotoxicity was 90% or greater). Also, the “Herbicidal effect Broadleaf weed” value in assay [6] is given as 5 (Herbicidal effect/phytotoxicity was 90% or greater).
Regarding `O=c1c(-c2cc(Oc3cccc(O)c3)c(Cl)cc2F)c(Cl)n2n1CCCC2` [Compound 3-4], the “Herbicidal effect Cyperus difformis” value in assay [1] is 5 (Herbicidal effect/phytotoxicity was 90% or greater). Besides, the “Herbicidal effect Echinochloa oryzicola” value in assay [2] was 5 (Herbicidal effect/phytotoxicity was 90% or greater). For the same compound, in assay [3], the “Herbicidal effect Eleocharis acicularis” value was 5 (Herbicidal effect/phytotoxicity was 90% or greater). Moreover, the “Herbicidal effect Monochoria vaginalis” value in assay [4] is on record as 5 (Herbicidal effect/phytotoxicity was 90% or greater). For the same compound, the “Herbicidal effect Scirpus juncoides” value in assay [5] is on record as 5 (Herbicidal effect/phytotoxicity was 90% or greater). The “Herbicidal effect Broadleaf weed” value in assay [6] is recorded as 5 (Herbicidal effect/phytotoxicity was 90% or greater).
